The values below come from ChEMBL document CHEMBL3886459, “Benzylamine derivatives as inhibitors of plasma kallikrein” (2016).

For one assay, the target named is T1, Coagulation factor XII (Homo sapiens, UniProt P00748).
T1 sequence (P00748 whole entry): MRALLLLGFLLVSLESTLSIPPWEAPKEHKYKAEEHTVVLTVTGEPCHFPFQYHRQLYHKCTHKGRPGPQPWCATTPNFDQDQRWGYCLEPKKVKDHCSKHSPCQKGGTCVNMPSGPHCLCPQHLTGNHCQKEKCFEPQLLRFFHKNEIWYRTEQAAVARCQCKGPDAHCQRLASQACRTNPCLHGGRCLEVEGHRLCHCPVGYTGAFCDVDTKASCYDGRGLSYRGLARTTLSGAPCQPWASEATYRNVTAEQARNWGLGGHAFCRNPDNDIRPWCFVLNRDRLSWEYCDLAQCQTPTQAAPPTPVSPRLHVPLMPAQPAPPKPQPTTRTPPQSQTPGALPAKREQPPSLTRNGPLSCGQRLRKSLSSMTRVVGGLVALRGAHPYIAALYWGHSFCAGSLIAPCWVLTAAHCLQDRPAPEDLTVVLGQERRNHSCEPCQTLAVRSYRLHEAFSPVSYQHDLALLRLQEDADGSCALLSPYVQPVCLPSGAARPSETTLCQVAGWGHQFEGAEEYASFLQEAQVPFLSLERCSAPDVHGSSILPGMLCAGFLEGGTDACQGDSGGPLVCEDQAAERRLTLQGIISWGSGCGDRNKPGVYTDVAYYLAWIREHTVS
The experiment in a line: Enzyme Assay: Human serine protease enzymes plasmin, thrombin, trypsin, Factor Xa and Factor XIIa were assayed for enzymatic activity using an appropriate fluorogenic substrate. Protease activity was measured by monitoring the accumulation of liberated fluorescence from the substrate over 5 minutes. The linear rate of fluorescence increase per minute was expressed as percentage (%) activity. The ….

For another assay, the target named is Kallikrein-1 (Homo sapiens, UniProt P06870). As to the kind of experiment: (§1) In Vitro Inhibition Assay: KLK1 inhibitory activity in vitro was determined using standard published methods (see e.g. Johansen et al., Int. J. Tiss. Reac. 1986, 8, 185; Shori et al., Biochem. Pharmacol., 1992, 43, 1209; Stürzebecher et al., Biol. Chem. Hoppe-Seyler, 1992, 373, 1025). Human KLK1 (Callbiochem) was incubated at 37° C. with the fluorogenic substrate H-DVal-Leu-Arg-AFC and various concentrations of the test compound. Residual enzyme activity (initial rate of reaction) was determined by measuring the change in […] at 410 nm and the IC50 value for the test compound was determined.

The target in another assay is Plasma kallikrein (Homo sapiens, UniProt P03952). The assay is described as §1, with “Plasma kallikrein” for “KLK1”, “Stiirzebecher” for “Stürzebecher”, “plasma kallikrein (Protogen)” for “KLK1 (Callbiochem)”, “H-DPro-Phe-Arg-AFC” for “H-DVal-Leu-Arg-AFC”. It is filed as cell-free.
Chain of Plasma kallikrein (P03952 20-390 limits assumed): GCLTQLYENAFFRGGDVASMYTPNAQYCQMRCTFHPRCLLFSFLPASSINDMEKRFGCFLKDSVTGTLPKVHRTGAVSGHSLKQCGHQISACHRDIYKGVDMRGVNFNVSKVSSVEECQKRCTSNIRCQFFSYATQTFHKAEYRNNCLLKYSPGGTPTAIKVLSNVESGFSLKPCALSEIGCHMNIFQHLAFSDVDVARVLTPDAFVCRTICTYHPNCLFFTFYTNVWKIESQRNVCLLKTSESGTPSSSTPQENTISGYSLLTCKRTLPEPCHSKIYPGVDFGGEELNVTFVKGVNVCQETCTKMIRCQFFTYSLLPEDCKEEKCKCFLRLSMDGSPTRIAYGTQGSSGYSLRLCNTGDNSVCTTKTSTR
Chain of Plasma kallikrein (P03952 391-638 limits assumed): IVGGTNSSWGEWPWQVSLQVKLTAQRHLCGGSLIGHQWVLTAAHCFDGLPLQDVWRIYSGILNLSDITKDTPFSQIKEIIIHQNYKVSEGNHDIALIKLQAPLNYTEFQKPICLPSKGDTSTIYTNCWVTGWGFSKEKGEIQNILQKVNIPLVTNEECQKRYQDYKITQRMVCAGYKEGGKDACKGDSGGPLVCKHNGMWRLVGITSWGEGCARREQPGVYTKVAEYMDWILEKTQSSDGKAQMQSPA

Chain of Kallikrein-1 (P06870 whole entry): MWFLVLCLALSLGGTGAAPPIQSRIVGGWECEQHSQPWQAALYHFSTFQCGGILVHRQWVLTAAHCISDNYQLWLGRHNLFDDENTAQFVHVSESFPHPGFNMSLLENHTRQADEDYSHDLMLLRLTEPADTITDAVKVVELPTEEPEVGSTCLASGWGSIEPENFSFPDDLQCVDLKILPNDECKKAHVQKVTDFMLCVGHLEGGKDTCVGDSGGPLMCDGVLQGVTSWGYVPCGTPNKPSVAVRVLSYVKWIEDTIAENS
Description for Coagulation factor XII: Enzyme Assay: Human serine protease enzymes plasmin, thrombin, trypsin, Factor Xa and Factor XIIa were assayed for enzymatic activity using an appropriate fluorogenic substrate. Protease activity was measured by monitoring the accumulation of liberated fluorescence from the substrate over 5 minutes. The linear rate of fluorescence increase per minute was expressed as percentage (%) activity. The Km for the cleavage of each substrate was determined by standard transformation of the Michaelis-Menten equation.

Turning to `CCOc1ccc(C[C@@H](NC(=O)c2ccc(C)cc2)C(=O)N[C@@H](Cc2ccccc2)C(=O)NCc2ccc(CN)cc2)cc1`, the results for the IC50 at Coagulation factor XII, against Kallikrein-1 and against Plasma kallikrein were > 10 µM, > 10 µM and 0.032 µM, respectively.

Take `CCCOc1ccc(C[C@@H](NC(=O)c2ccccc2)C(=O)N[C@@H](Cc2ccccc2)C(=O)NCc2ccc(CN)cc2)cc1`: the values for the IC50 on Kallikrein-1 and against Plasma kallikrein were 9.5 µM and 0.04 µM, respectively.

Take `NCc1ccc(CNC(=O)[C@H](Cc2ccccc2)NC(=O)[C@@H](Cc2ccc(OCc3ccccc3)cc2)NC(=O)c2ccccc2)cc1`: the figures for the half-inhibitory concentration (IC50) against Kallikrein-1 and at Plasma kallikrein were > 10 µM and 1.21 µM, respectively.

As for `CCOc1ccc(C[C@@H](NC(=O)c2ccccc2)C(=O)N[C@@H](Cc2c[nH]c3ccccc23)C(=O)NCc2ccc(CN)cc2)cc1`, the 50% inhibitory concentration (IC50) was > 10 µM against Kallikrein-1 and 0.028 µM at Plasma kallikrein.

In the case of `NCc1ccc(CNC(=O)[C@H](Cc2ccccc2)NC(=O)[C@H](N)CC2CCCCC2)cc1`, the IC50 was > 1 µM against Kallikrein-1 and 0.74 µM on Plasma kallikrein.

On to `CCOc1ccc(C[C@@H](NC(=O)c2ccc(OC)cc2)C(=O)N[C@@H](Cc2ccccc2)C(=O)NCc2ccc(CN)cc2)cc1`, for which the IC50 at Coagulation factor XII was > 10 µM; against Kallikrein-1, > 10 µM; at Plasma kallikrein it was 0.046 µM.
